Earlier results as cited in US8202852B2, “Creatine phosphate analog prodrugs, compositions and uses thereof” (XenoPort, Inc., priority 2006, dated 2012).
Where two headings read alike, the source gives them in different places.

Legend:
[1] = not given; remark: listed apart in the source
[2] = animals, diet containing up to 1%

For `CN(CC(=O)O)C(=N)N.O` [creatine monohydrate], the adverse side effects (athletes and body builders, 2-3 gm/day) is given as “without adverse side effects”.

In the case of `CN(CC(=O)O)C(=N)NP(=O)(O)O` [creatine phosphate], the adverse side effects (patients with cardiac diseases, intravenous injection up to 8 gm/day) is given as “without adverse side effects”.

In the case of `CN(CC(=O)O)C(=N)N` [creatine, Creatine], the “overall increase in creatine phosphate levels” value ([1]; creatine supplementation, typically takes weeks) is given as less than 50% and the “increase in cerebral creatine phosphate” value ([1]; healthy volunteers, oral creatine administration) is given as “about 10%”.

In the case of `NC1=NCCN1CC(=O)O` [cyclocreatine], the adverse effects [2] is listed as “do not exhibit adverse effects”.
